Key:
Experiment in all cases: relative viability (nuclei count vs DMSO), 5 days (fraction); higher = more cells survive
CAP-232 + Alpelisib = compound: C[C@H]([C@@H](C(=O)N)NC(=O)[C@@H]1CSSC[C@@H](C(=O)N[C@H](C(=O)N[C@@H](C(=O)N[C@H](C(=O)N1)CCCCN)CC2=CNC3=CC=CC=C32)CC4=CC=C(C=C4)O)NC(=O)[C@@H](CC5=CC=CC=C5)N)O [CAP-232] + Cc1nc(NC(=O)N2CCC[C@H]2C(N)=O)sc1-c1ccnc(C(C)(C)C(F)(F)F)c1 [Alpelisib] (partner 2 µM)
Method in brief: (§1)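 Relative viability equals treated-well nuclei counts divided by vehicle-well nuclei counts. Counts came from 4× images of lung cancer cell lines grown in 1536-well plates for 5 days after pin-tool dosing on the day after seeding. Dosing used one drug alone or a fixed anchor-drug dose plus five library-drug doses (not always all listed) in √10 steps, and values are medians of duplicate plates.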

CAP-232 + Foretinib = compound: C[C@H]([C@@H](C(=O)N)NC(=O)[C@@H]1CSSC[C@@H](C(=O)N[C@H](C(=O)N[C@@H](C(=O)N[C@H](C(=O)N1)CCCCN)CC2=CNC3=CC=CC=C32)CC4=CC=C(C=C4)O)NC(=O)[C@@H](CC5=CC=CC=C5)N)O [CAP-232] + COc1cc2c(Oc3ccc(NC(=O)C4(C(=O)Nc5ccc(F)cc5)CC4)cc3F)ccnc2cc1OCCCN1CCOCC1 [Foretinib] (partner 0.25 µM)
Method in brief: as §1

CAP-232 + OSI-027 = compound: C[C@H]([C@@H](C(=O)N)NC(=O)[C@@H]1CSSC[C@@H](C(=O)N[C@H](C(=O)N[C@@H](C(=O)N[C@H](C(=O)N1)CCCCN)CC2=CNC3=CC=CC=C32)CC4=CC=C(C=C4)O)NC(=O)[C@@H](CC5=CC=CC=C5)N)O [CAP-232] + COc1cccc2cc(-c3nc([C@H]4CC[C@H](C(=O)O)CC4)n4ncnc(N)c34)[nH]c12 [OSI-027] (partner 0.5 µM)
Method in brief: as §1

CAP-232 + Crizotinib = compound: C[C@H]([C@@H](C(=O)N)NC(=O)[C@@H]1CSSC[C@@H](C(=O)N[C@H](C(=O)N[C@@H](C(=O)N[C@H](C(=O)N1)CCCCN)CC2=CNC3=CC=CC=C32)CC4=CC=C(C=C4)O)NC(=O)[C@@H](CC5=CC=CC=C5)N)O [CAP-232] + C[C@@H](Oc1cc(-c2cnn(C3CCNCC3)c2)cnc1N)c1c(Cl)ccc(F)c1Cl [Crizotinib] (partner 1 µM)
Method in brief: as §1

CAP-232 + Phenformin = compound: C[C@H]([C@@H](C(=O)N)NC(=O)[C@@H]1CSSC[C@@H](C(=O)N[C@H](C(=O)N[C@@H](C(=O)N[C@H](C(=O)N1)CCCCN)CC2=CNC3=CC=CC=C32)CC4=CC=C(C=C4)O)NC(=O)[C@@H](CC5=CC=CC=C5)N)O [CAP-232] + N=C(N)NC(=N)NCCc1ccccc1 [Phenformin] (partner 250 µM)
Method in brief: as §1

Cell Line	relative viability (CAP-232 + Alpelisib; first compound 0.4 µM)	relative viability (CAP-232 + Alpelisib; first compound 1.265 µM)	relative viability (CAP-232 + Alpelisib; first compound 4 µM)	relative viability (CAP-232 + Alpelisib; first compound 12.65 µM)	relative viability (CAP-232 + Foretinib; first compound 0.4 µM)	relative viability (CAP-232 + Foretinib; first compound 1.265 µM)	relative viability (CAP-232 + Foretinib; first compound 4 µM)	relative viability (CAP-232 + Foretinib; first compound 12.65 µM)	relative viability (CAP-232 + OSI-027; first compound 0.4 µM)	relative viability (CAP-232 + OSI-027; first compound 1.265 µM)	relative viability (CAP-232 + OSI-027; first compound 4 µM)	relative viability (CAP-232 + OSI-027; first compound 12.65 µM)	relative viability (CAP-232 + Crizotinib; first compound 0.4 µM)	relative viability (CAP-232 + Crizotinib; first compound 1.265 µM)	relative viability (CAP-232 + Crizotinib; first compound 4 µM)	relative viability (CAP-232 + Crizotinib; first compound 12.65 µM)	relative viability (CAP-232 + Phenformin; first compound 0.4 µM)	relative viability (CAP-232 + Phenformin; first compound 1.265 µM)	relative viability (CAP-232 + Phenformin; first compound 4 µM)	relative viability (CAP-232 + Phenformin; first compound 12.65 µM)
NCI-H2023	0.711	0.592	0.637	0.237	0.899	0.946	0.766	0.294	0.429	0.359	0.447	0.124	0.837	0.548	0.693	0.292	0.448	0.388	0.417	0.188
NCI-H2085	1.02	0.886	0.902	1.16	0.933	0.87	1.1	0.998	0.786	0.726	0.934	0.594	0.728	0.882	0.821	0.853	0.713	0.703	0.741	0.688
NCI-H2087	0.983	1.17	0.929	0.841	1.17	1.2	1.1	0.665	0.444	0.489	0.596	0.41	0.929	0.809	0.967	0.819	0.435	0.419	0.436	0.321
NCI-H2126	0.751	0.742	0.8	0.73	1.34	1.33	1.63	1.11	0.743	0.76	0.846	0.648	1.06	1.03	1.13	1.09	0.525	0.5	0.51	0.56
NCI-H2170	0.81	0.865	0.831	0.76	1	1.04	1.02	1.05	0.658	0.737	0.777	0.669	1.24	1.22	1.23	0.901	0.409	0.422	0.438	0.42
NCI-H2228	0.816	0.572	0.777	0.848	0.826	0.938	1.09	0.485	0.712	0.494	0.665	0.556	0.637	0.407	0.526	0.461	0.38	0.253	0.409	0.221
NCI-H2347	0.966	0.993	0.986	0.995	0.804	0.524	1.11	1.05	0.29	0.489	0.352	0.614	0.794	0.753	0.0086	0.544	0.281	0.305	0.427	0.296
NCI-H2405	0.623	0.924	0.683	0.396	1.04	1.11	1.05	0.79	0.626	0.648	0.693	0.518	0.76	0.848	0.876	0.843	0.377	0.356	0.37	0.317
